According to patent US11679123B2, “N-acylated hyaluronic acid for hyperuricemia and gouty arthritis” (Queen's University at Kingston, priority 2018, dated 2023):

Tests used:
[1] = tested on: rats with MSU-induced acute gout; assay: MSU crystal-induced acute gout in rats: ankle swelling ratio; type: in vivo, Wistar rats; conditions: P<0.01; for ankle swelling in comparison with the MSU treated group: at 4 h, 12 h and 48 h
Method: Male Wistar rats (n=50, 8 weeks: 160-200 g) were purchased from Liaoning Changsheng Biotechnology Company Ltd, Jilin, China (SCXK (Liao)-2015-0001). These rats were housed in plastic cages and maintained on a 12-h light/12-h dark cycle (lights on 7:00-19:00 h) under standard laboratory conditions of 55% relative humidity and at 23° C.±1° C. They were given standard chow (Liaoning Changsheng Biotechnology Company Ltd, Jilin, China) and tap water ad libitum. All experimental procedures were approved by the Animal Ethics Committee of Jilin University (Reference NO. 201605).
An experimental model of MSU-induced gouty arthritis was used in order to evaluate the anti-inflammatory activities of BHA. Rats were randomly divided into five groups (n=10), include a control group (NC), a model group (MC), a 0.3 mg/kg colchicine group (COL), a 10 μg BHA group (10BHA) and a 50 μg BHA group (50BHA). MSU crystals were suspended in 0.9% sterile saline (30 mg/mL) prior to use. The colchicine group rats were orally administrated colchicine (0.3 mg/kg) for 8 days, and all rats except for the control group were injected with 3 mg of MSU (Sigma, USA) at the 6th day into the right ankle synovial space 1 h after gavage feeding. Meanwhile a turbid sample of MSU mixed with 100 μg of BHA or 500 μg of BHA per mL of solution for 10BHA rats or 50BHA rats. At the 8th day, 1 h after the administration of the final agents, blood was sampled from the caudal veins of the rats and the right ankle joints of the rats were collected and fixed in 4% paraformaldehyde. Serum was separated and stored at −80° C. prior to analysis (FIG. 2A, E).
The right ankle circumferences of all rats at 0, 4, 12, 24 and 48 h after MSU injection were measured. The swelling ratio (%) was used to evaluate the gouty arthritis and calculated according to the change of the circumference via the formula: Swelling ratio (%)=(Ct−C0)/C0, wherein, Ct represented the circumference at time t (in h) and C0 represented the circumference at 0 h.

[2] = tested on: stimulated human cultured macrophages; conditions: THP-1, BHA of reduced molecular weight; cited from earlier work
[3] = tested on: factors related to oxidative stress; assay: Factors related to oxidative stress in serum and liver of hyperuricemia mice (ELISA); type: in vivo, Balb/C mice; conditions: for Liver CAT / Liver GSH-PX / Liver MDA / Liver ROS / Liver SOD / Serum CAT / Serum GSH-PX / Serum MDA / Serum ROS / Serum SOD: hyperuricemia mice, mean ± S.D., n=10
Method: Due to the presence of uricase in mice, a hyperuricemic mouse model was established by using uricase inhibitor and large amounts of purine. Mice were randomly divided into five groups (n=10), including the control group (NC), model group (MC), 20 mg/kg of AL (Shimao Tianjie Pharmaceutical Co. Ltd, Jiangsu, China) group, 10 μg BHA group (10BHA) and 50 μg BHA group (50BHA). Oral administration of AL and intraperitoneal injection of BHA were administered according to the required dose, and all mice were gavage fed 20 g/kg yeast extract powder 12 h prior to the administration of AL and BHA except for NC mice for 8 days. From the 6th to 8th day, 1-h prior to AL and BHA administration, 300 mg/kg of OXO (Sigma, USA) was intraperitoneally injected to all of the mice except those in the control group. At 1 h after the final drug administration, blood was sampled from caudal veins of the mice, serum was separated and their livers were quickly collected (FIG. 3A, E). All samples were stored at −80° C. until assay measurements were performed.
The levels of reactive oxygen species (ROS, 43355), malondialdehyde (MDA, 43124) glutathione peroxidase (GSH-Px, 43390), superoxide dismutase (SOD, 43125), catalase (CAT, 43356), creatinine (Cr, 43353) and blood urea nitrogen (BUN, 43352) in the serum and livers of mice were determined using ELISA Kits (Yuanye Bio-Technology Co. Ltd, Shanghai, China) according to the manufacturer's instructions.

[4] = 10 μg BHA intraperitoneal (10BHA)
[5] = 50 μg BHA intraperitoneal (50BHA)

Substance: N-butyrylated HA [BHA]
- swelling ratio reduction ([1]; 10 μg BHA, at 12 h (best suppression)): 11.0%
- swelling ratio reduction ([1]; 50 μg BHA, at 48 h (best suppression)): 9.5%
- ankle swelling in comparison with the MSU treated group ([1]; BHA 10 μg): suppressed the ankle swelling
- ankle swelling in comparison with the MSU treated group ([1]; BHA 50 μg): suppressed the ankle swelling
- production of pro-inflammatory cytokines (IL-1, IL-6, IL-8, TNF-α) [2]: decreased production of pro-inflammatory cytokines significantly
- decrease of ROS levels in the liver ([3]; 10 μg BHA, P<0.01): 8.04%
- decrease of ROS levels in the serum ([3]; 10 μg BHA, P<0.01): 14.87%
- improvement of liver SOD ([3]; 10 μg BHA, P<0.05): 12.77%
- decrease of ROS levels in the liver ([3]; 50 μg BHA, P<0.05): 9.59%
- decrease of ROS levels in the serum ([3]; 50 μg BHA, P<0.05): 14.63%
- improvement of liver SOD ([3]; 50 μg BHA, P<0.05): 13.69%
- Liver CAT [3, 4]: 13.1 ± 1.4 U/mg
- Liver GSH-PX [3, 4]: 78.8 ± 8^ U/mg
- Liver MDA [3, 4]: 3.4 ± 0.2 nmol/mg
- Liver ROS [3, 4]: 70.8 ± 3.7 U/mg
- Liver SOD [3, 4]: 56.8 ± 5.8 U/mg
- Serum CAT [3, 4]: 43.3 ± 4.6 U/mL
- Serum GSH-PX [3, 4]: 246.8 ± 10.2 U/mL
- Serum MDA [3, 4]: 10.4 ± 0.5 nmol/mL
- Serum ROS [3, 4]: 226.6 ± 17.9 U/mL
- Serum SOD [3, 4]: 166.6 ± 11.8 U/mL
- Liver CAT [3, 5]: 14.1 ± 1.5 U/mg
- Liver GSH-PX [3, 5]: 77.9 ± 7.3 U/mg
- Liver MDA [3, 5]: 3.5 ± 0.2 nmol/mg
- Liver ROS [3, 5]: 69.6 ± 7.1 U/mg
- Liver SOD [3, 5]: 57.2 ± 4.4 U/mg
- Serum CAT [3, 5]: 41.5 ± 6^ U/mL
- Serum GSH-PX [3, 5]: 231.4 ± 13.3 U/mL
- Serum MDA [3, 5]: 10.5 ± 0.3 nmol/mL
- Serum ROS [3, 5]: 227.2 ± 17.9 U/mL
- Serum SOD [3, 5]: 161.2 ± 8 U/mL
